# From US8575145B2, “Triazolopyridine compounds as PIM kinase inhibitors” (Array BioPharma Inc., priority 2008, dated 2013)
# Structures can show the parent of a compound that is named as a salt.
# Experiments:
# [1] = tested on: C57BL/6 mice immunized with hen egg lysozyme; assay: T Cell In Vivo Functional Assay (HEL immunization, ex vivo recall); parameters: species or system mouse; conditions: 200 mg/kg oral twice a day, 7 days; relative to vehicle
# Description: To determine the effect of compounds of Formula I on T cell responses, the following experiment was conducted. On Day O, C57BL/6 (Jackson Laboratories #000664, 6-8 weeks of age) were immunized at the base of the tail with 100 μg of hen egg lysozyme (HEL; Sigma #L7773) with complete Freund's adjuvant (CFA; Sigma #F5881). Starting on Day 0 and continuing until Day 7, mice were dosed twice a day by oral administration with vehicle (water) or the compound of Example 26 (200 mg/kg). On Day 7, opopiteal lymph nodes were removed, single cell suspensions were prepared and 500,000 cells in 200 μL were activated in 96 well plates with the indicated dose of HEL peptide. Following incubation for 72 hours at 37° C., 5% CO2, supernatants were harvested for IFNγ ELISA (R&D Systems catalog #MIF00) and proliferation was assessed using the CellTitre-Glo™ luminescent assay (Promega, Catalog #G7571) with both assays performed according to the manufacturer's protocol. ELISA plates were quantified relative to a standard curve using Molecular Devices Versamax Reader at […] and Softmax Pro software; proliferation was quantitated on a Packard TopCount instrument using luminescence protocol and data was analyzed using excel software.
# [2] = tested on: C57BL/6 recipient mice, adoptive transfer EAE model; assay: Adoptive Transfer Experimental Autoimmune Encephalomyelitis; assay type: in vivo, mouse; conditions: 200 mg/kg oral gavage twice daily for 26 days
# Description: Having observed that compounds of Formula I inhibit T cell activation in vitro and in vivo, the effect of a compound of Formula I on an autoimmune disease induced by T cells was determined using an adoptive transfer EAE model, an animal model of human multiple sclerosis (Brain (2006), 129, 1953-1971). This model relies on the injection of T cells from animals with EAE into disease-free host animals. This injection of cells is known to those skilled in the art as adoptive transfer. By injecting the animals with activated, encephalogenic T cells, this model is focused on the pathogenic stage of EAE autoimmune disease. On Day-14, C57BL/6 mice (Taconic Farms; 10 weeks old) were immunized with a disease-causing protein, MOG(35-55) peptide in complete Freund's adjuvant (Hooke Laboratories, catalog #EK-0113). On Day -3, spleens were harvested, single cell suspensions were prepared and then 5,000,000 cells/mL were stimulated with 20 μg/mL MOG(33-55) peptide (Open Biosystems), 30 ng/mL IL-12 (R&D Systems catalog #419-ML-010), 10 μg/mL anti-IFNγ antibody (BD Biosciences catalog #554408) at 37° C., 5% CO2. On Day 0, 1,500,000 of these cells were injected intravenously into the tail veins of C57BL/6 recipient mice. […] The recipient mice were scored daily days 0 through 26 using the following clinical scoring system: […]
# [3] = tested on: C57BL/6J mice, MOG-induced EAE; assay: MOG(35-55)-induced Experimental Autoimmune Encephalomyelitis; assay type: in vivo, mouse; conditions: 200 mg/kg oral gavage twice daily, days 7 through 27; vehicle and untreated 3.0
# Description: To further determine the effect of compounds of Formula I on an autoimmune disease associated with T cells and cytokines, a MOG-induced experimental autoimmune encephalomyelitis (EAE) experiment was performed. MOG-induced EAE is an animal model of human multiple sclerosis (Brain (2006), 129, 1953-1971).
# On Day 0, C57BL/6J mice (Jackson Laboratories #000664, 6-8 weeks of age) were injected subcutaneously with 100 μL of complete Freund's adjuvant (CFA) prepared as a 1:1 emulsion of (a) incomplete Freund's adjuvant (Difco, catalog #263910) containing 8 mg/mL m. tuberculosis H37RA (Difco, catalog #231141) and (b) phosphate buffered saline (PBS) containing 1 mg/mL MOG(35-55) peptide (California Peptide Research Inc). On the day 0 and 2, mice were injected intravenously with 200 ng of pertussis toxin (List Biological Laboratories, catalog #181). On day 7, the mice were randomized into treatment groups which received vehicle (distilled water) or the compound of Example 26 (200 mg/kg) administered by oral gavage twice daily from days 7 through 27.
# The mice were scored daily on days 7 through 37 using the following clinical scoring system:
# 1.5—unsteady gait, mild hind limb ataxia
# 2.0—partial hind limb paralysis (hind limbs carrying weight)
# 2.5—partial hind limb paralysis (hind limbs not carrying weight)
# 3.0—full hind limb paralysis
# 3.5—full hind limb paralysis and partial front limb paralysis
# MRL/MpJ-Fas<lpr> mice = assay: MRL/lpr Lupus Model; assay type: in vivo, mouse; conditions: 200 mg/kg twice daily
# Excerpt: MRL/lpr is considered to be an animal model of systemic lupus erythematosus (SLE), an autoimmune disease (Cohen and Maldonado 2003, Current Protocols in Immunology Chapter 15, Unit 15.20). MRL/lpr mice have a defect in the apoptosis of activated lymphocytes and over time develop a spontaneous and severe lymphoproliferative disorder characterized by enlarged lymphoid organs, auto-antibody production and kidney disease resulting in proteinuria. […] To determine the effect of compounds of Formula I in this model of SLE, the following experiment was conducted.
# MRL/MpJ-Fasand age-matched MRL/MpJ control mice (Jackson Laboratories, catalog #000485 and #000486, respectively) were treated once daily with vehicle (1% CMC/0.5% Tween 80) or twice daily with the compound of Example 26 (200 mg/kg) for 10 weeks. Body weights, lymphadenopathy and urine protein levels were monitored weekly. Urine protein levels were determined with Bayer Albustix dipsticks (Bayer catalog #2191) and scored according to the following scale:
# Serum levels of anti-ds-DNA antibody were measured by ELISA (Alpha Diagnostic, catalog #5120) on Day 28 and upon study termination. ELISA plates were quantitated using a Molecular Devices Versamax plate reader at […] and titers calculated relative using to a standard curve using a 4-parameter curve fit with Softmax Pro software.
smiles,measurement,setting,value
"F[C@@H]1CNCCC1Oc1cccc2ccc(-c3nnc4ccccn34)nc12 (stereo in doubt) [Example 26, 2-([1,2,4]triazolo[4,3-a]pyridin-3-yl)-8-((cis)-3-fluoropiperidin-4-yloxy)quinoline dihydrochloride]",ex vivo HEL-specific proliferation,[1],decreased
same,ex vivo IFNγ production,[1],decreased
same,disease onset (first of 2 consecutive days with clinical score >= 1),[2],significant delay in disease onset
same,median day of onset,[2]; untreated and vehicle groups day 6,11 days
same,median maximal clinical score,[3],1.5
same,proteinuria over time,"MRL/MpJ-Fas<lpr> mice; 10 weeks, relative to vehicle control",prevents the development of proteinuria
same,decrease in serum anti-dsDNA relative to vehicle control,MRL/MpJ-Fas<lpr> mice; 28 days,74%
same,decrease in serum anti-dsDNA antibodies relative to vehicle control,MRL/MpJ-Fas<lpr> mice; study termination (79 days of dosing),99%
